According to patent US12564630B2, “Vaccine adjuvants” (priority 2020, dated 2026):

How the values were obtained:
[1] = Chemisorption to aluminum hydroxide ("Alum") quantified by liquid chromatography-mass spectrometry; format: physicochemical
Description: Chemisorption was quantified by liquid chromatography-mass spectrometry. When appropriate ratios of the adjuvant and aluminum hydroxide are used, all of the adjuvant is bound to alum. This ensures delivery of the adjuvant to the draining lymph nodes, and minimizes systemic exposure. It is important not to exceed the ratio to avoid the presence of excess small molecule adjuvant. […] The ratio can range from 1:10 (mg Compound 1:mL aluminum hydroxide gel) to 10:1, or from 1:8 to 8:1, or 1:5 to 5:1; or 1:2 to 2:1, or about 1:1.
The Compound is chemisorbed onto aluminum hydroxide to form an adjuvant complex referred to herein as (“Alhydroxiquim-II”). The trihydroxybenzyl appendage of the adjuvant Compound 1 ligand-exchanges with the hydroxyl groups of aluminum hydroxide (chemisorption). When appropriate ratios of the adjuvant and aluminum hydroxide are used, all of the adjuvant is bound to alum. This ensures delivery of the adjuvant to the draining lymph nodes, and minimizes systemic exposure. It is important not to exceed the ratio to avoid the presence of excess small molecule adjuvant.
Chemisorption was quantified by liquid chromatography-mass spectrometry.

[2] = human trials; cited from earlier work
[3] = 10 mg of the small-molecule to 10 mL of standard Alhydrogel (10 mg of aluminum content/mL)

Row | Structure (SMILES) | binding to aluminum hydroxide gel (Alhydrogel) [1, 3] | concentrations of free small molecule [1, 3] | chemisorption to “Alum” ([1]; quantified by LC-MS, FIG. 2) | tolerability (systemic side effects including fever, headache, malaise, and myalgia) [2]
1 | CCCCc1nc2c(N)nc3ccccc3c2n1Cc1cccc(CNC(=O)c2cc(O)c(O)c(O)c2)c1 [Compound 1, N-(3-((4-amino-2-butyl-1H-imidazo[4,5-c]quinolin-1-yl)methyl)benzyl)-3,4,5-trihydroxybenzamide] | complete binding | undetectable | saturable | –
2 | CCOCc1nc2c(N)nc3ccccc3c2n1CC(C)(C)O [Resiquimod] | – | – | – | poorly tolerated
